Results as given in article PMC10111420, “Optimization of Host Cell-Compatible, Antimicrobial Peptides Effective against Biofilms and Clinical Isolates of Drug-Resistant Bacteria” (ACS Infectious Diseases, 2023).
Where a SMILES comes first, the peptide text is derived from it. [ ]: non-standard residue; d: D form.

Experiments:
human RBCs = format: cell-based
How it was run: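 Washed human O+ erythrocytes (2 × 10^8 cells/mL stock, mixed 1:1) were incubated with peptide serially diluted from 100 μM in PBS for 1 h at 37 °C. Released hemoglobin was read at 410 nm in supernatant; fractional hemolysis calculated against 1% Triton (100%) and 0% lysis controls, averaged over ≥3 experiments.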

[1] = test system: P. aeruginosa and MRSA wound biofilms; assay: SEM of Tegaderm wound dressing, both bacteria pooled; format: in vivo, CD1 mice; settings: 68 images from treated animals, Day 3 Tegaderm
From the text: The Tegaderm dressing used in the murine wound model is an excellent substrate for bacterial adhesion and biofilm formation.[5],[15] […] We imaged three to four randomly selected areas of each Tegaderm sample at two magnifications each. Each image is scored for the presence/absence of bacterial cells, either rod-shaped P. aeruginosa, ∼1 μm in diameter, or spherical MRSA cocci, ∼0.9 μm in diameter. Images are also scored for biofilm-like structures defined by having multiple bacteria embedded in an obvious three-dimensional matrix. These distinctions are shown by representative images of the fixed Tegaderm dressings in Figure 9A,B. In vehicle control samples, we observed that P. aeruginosa frequently forms an open, three-dimensional matrix in which many cells are entangled in μm-long fibers. We observed that MRSA also forms a matrix in which cells are close-packed in strands that comprise a large-scale mesh. Every SEM image (68/68) from vehicle control samples of the two bacteria contained obvious visible bacteria, and most of these images contained ≥50 individual cells. In samples from peptide-treated animals, 57 of 68 (84%) of images had no visible bacteria. […] We performed a statistical analysis of observed bacteria and biofilms using the binomial equation. P-values for all comparisons of treated vs vehicle were less than 0.001. […]

[2] = Post-surgery mouse monitoring (weight, wound condition); settings: monitored every day for 14 days, four mice per group, P. aeruginosa and MRSA infected mice, versus vehicle control
Description: In this model, a deep surgical punch wound, created on the dorsal surface of healthy adult CD1 mice is stabilized with a silicone ring to prevent healing by contraction, and then, covered with a Tegaderm dressing. The wound bed, with a volume of ∼20 μL, is immediately infected with 1 × 10^5 cfu of luciferase-producing P. aeruginosa or MRSA.
Female CD1 mice at 8–12 weeks of age were anesthetized via intraperitoneal injection of ketamine and xylazine at doses of 90 and 10 mg/kg, respectively. Their dorsal surface was depilated using an electric razor and scrubbed with a chlorhexidine solution. A full-thickness biopsy wound was generated using a 5 mm biopsy punch (Integra). To function as a splint for the wound, a 0.5 mm thick silicon (Invitrogen) ring with an outer diameter of 10 mm and a hole with a 5 mm diameter was placed over the wound and held to the skin with a surgical adhesive. The entire silicon ring was then covered with Tegaderm (3 M), and further adhered using 4-0 braided silk interrupted sutures (Ethicon). Mice were given 0.05 mg/kg buprenorphine immediately following surgery as well as daily for the next 2 days to alleviate pain from the procedure. […] Weight, activity, posture, coat condition, and wound condition were monitored each day throughout the duration of the experiment to ensure the well-being of each mouse. […]

SMILES: CC(C)C[C@@H](NC(=O)[C@@H](CCC(N)=O)NC(=O)[C@@H](CCCNC(=N)N)NC(=O)[C@@H](CCCNC(=N)N)NC(=O)[C@@H](C)NC(=O)[C@@H](Cc1c[nH]c2ccccc12)NC(=O)[C@@H](CCCNC(=N)N)NC(=O)[C@H](N)CCCNC(=N)N)C(=O)N[C@H](C)C(=O)N[C@H](Cc1ccccc1)C(=O)N[C@H](C)C(=O)N[C@H](Cc1ccccc1)C(=O)N[C@H](CCCNC(=N)N)C(=O)N[C@H](CCCNC(=N)N)C(N)=O [D-CONGA-Q7] (H-[dR][dR][dW][dA][dR][dR][dQ][dL][dA][dF][dA][dF][dR][dR]-NH2; N-terminus assumed)
- Hemolysis at 100 μM (fractional hemolysis) (human RBCs): 0.07
- Biofilm observed in SEM images [1]: no biofilm was observed
- Weight loss of mice [2]: did not demonstrate any differential weight loss
- Wound condition score [2]: no significant difference
